Experimental data taken from patent publication US11155557B2, “Pyrazolopyrimidine compounds and methods of use thereof” (Genentech, Inc., priority 2016, dated 2021).
Like-named read-outs stand apart in the source and are kept apart here.

What was measured:
[1] = biological target: isolated recombinant JAK1 kinase domain (Homo sapiens (Human), UniProt P23458); experiment: JAK1 enzyme assay (Caliper LabChip, Ki); format: biochemical
Method: The activity of the isolated recombinant JAK1 and JAK2 kinase domain was measured by monitoring phosphorylation of a peptide derived from JAK3 ([…] fluorescently labeled on the N-terminus with 5-carboxyfluorescein) using the Caliper LabChip R technology (Caliper Life Sciences, Hopkinton, Mass.).

[2] = system: JAK1-dependent STAT6 phosphorylation in BEAS-2B human bronchial epithelial cells; experiment: JAK1 pathway assay: IL-13 stimulated STAT6 phosphorylation in BEAS-2B cells; format: cell-based; conditions: BEAS-2B cells, IL-13 stimulation, read-out: IL-13 p-STAT6 BEAS-2B IC50
Method: JAK1 Pathway Assay in Cell Lines was Carried Out as Follows:
Inhibitor potency (EC50) was determined in cell-based assays designed to measure JAK1 dependent STAT phosphorylation.
In one assay approach, TF-1 human erythroleukemia cells obtained from the American Type Culture Collection (ATCC; Manassas, Va.) were used to measure JAK1-dependent STAT6 phosphorylation downstream of IL-13 stimulation. Prior to use in the assays, TF-1 cells were starved of GM-CSF overnight in OptiMEM medium (Life Technologies, Grand Island, N.Y.) supplemented with 0.5% charcoal/dextran stripped fetal bovine serum (FBS), 0.1 mM non-essential amino acids (NEAA), and 1 mM sodium pyruvate. The assays were run in 384-well plates in serum-free OptiMEM medium using 300,000 cells per well. In a second assay approach, BEAS-2B human bronchial epithelial cells obtained from ATCC were plated at 100,000 cells per well of a 96-well plate one day prior to the experiment. The BEAS-2B assay was run in complete growth medium (bronchial epithelial basal medium plus bulletkit; Lonza; Basel, Switzerland).
Test compounds were serially diluted 1:2 in DMSO and then diluted 1:50 in medium just before use. Diluted compounds were added to the cells, for a final DMSO concentration of 0.2%, and incubated for 30 min (for the TF-1 assay) or 1 hr (for the BEAS-2B assay) at 37° C. Then, cells were stimulated with human recombinant cytokine at their respective EC90 concentrations, as previously determined for each individual lot. Cells were stimulated with IL-13 (R&D Systems, Minneapolis, Minn.) for 15 min at 37° C. […] The resultant samples were frozen in the plates at −80° C. Compound mediated inhibition of STAT6 phosphorylation was measured in the cell lysates using MesoScale Discovery (MSD) technology (Gaithersburg, Md.).

[3] = biological target: isolated recombinant JAK2 kinase domain (Homo sapiens (Human), UniProt O60674); experiment: JAK2 enzyme assay (Caliper LabChip, Ki); conditions: read-out: JAK2 Ki
isolated recombinant JAK2 kinase domain, sequence (O60674 849-1124): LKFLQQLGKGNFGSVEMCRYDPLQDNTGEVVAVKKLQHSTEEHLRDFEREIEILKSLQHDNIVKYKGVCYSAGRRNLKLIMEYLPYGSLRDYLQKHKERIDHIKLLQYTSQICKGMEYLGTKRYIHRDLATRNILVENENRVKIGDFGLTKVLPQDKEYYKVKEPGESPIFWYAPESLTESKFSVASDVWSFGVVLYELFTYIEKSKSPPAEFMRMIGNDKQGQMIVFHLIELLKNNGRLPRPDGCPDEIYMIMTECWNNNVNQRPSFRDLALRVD

isolated recombinant JAK1 kinase domain, sequence (P23458 875-1153): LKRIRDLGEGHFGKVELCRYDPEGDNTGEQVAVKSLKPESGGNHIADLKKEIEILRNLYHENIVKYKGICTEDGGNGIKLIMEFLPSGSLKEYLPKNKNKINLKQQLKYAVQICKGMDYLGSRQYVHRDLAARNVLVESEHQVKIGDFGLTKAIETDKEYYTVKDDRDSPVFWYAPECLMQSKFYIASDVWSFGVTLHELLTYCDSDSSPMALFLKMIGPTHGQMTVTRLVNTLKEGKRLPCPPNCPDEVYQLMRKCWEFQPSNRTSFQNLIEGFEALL

Row | Structure (SMILES) | Ki [1] [nM] | IC50 ([2]; Homo sapiens, BEAS-2B) [nM] | Ki [3] [nM] | IC50 [2] [nM]
1 | O=C(Nc1cn(C2CCCNC2)nc1-c1cc2ccccc2cc1OC(F)F)c1cnn2cccnc12 (racemic) [Example 5, N-(3-(3-(difluoromethoxy)naphthalen-2-yl)-1-(piperidin-3-yl)-1H-pyrazol-4-yl)pyrazolo[1,5-a]pyrimidine-3-carboxamide] | 1.21 | 31 | 0.78 | 
2 | O=C(Nc1c[nH]nc1-c1cc2c(cc1OC(F)F)CC(CO)O2)c1cnn2cccnc12 (racemic) [Example 15, N-(3-(5-(difluoromethoxy)-2-(hydroxymethyl)-2,3-dihydrobenzofuran-6-yl)-1H-pyrazol-4-yl)pyrazolo[1,5-a]pyrimidine-3-carboxamide] | 0.69 | 143 | 0.24 | 
3 | NCC1CNc2cc(OC(F)F)c(-c3n[nH]cc3NC(=O)c3cnn4cccnc34)cc2S1 (racemic) [Example 38, N-[3-[2-(aminomethyl)-6-(difluoromethoxy)-3,4-dihydro-2H-1,4-benzothiazin-7-yl]-1H-pyrazol-4-yl]pyrazolo[1,5-a]pyrimidine-3-carboxamide] | 0.33 | > 1000 | 0.29 | 
4 | CC1CSc2cc(-c3n[nH]cc3NC(=O)c3cnn4cccnc34)c(OC(F)F)cc2N1 (racemic) [Example 41, N-[3-[6-(difluoromethoxy)-3-methyl-3,4-dihydro-2H-1,4-benzothiazin-7-yl]-1H-pyrazol-4-yl]pyrazolo[1,5-a]pyrimidine-3-carboxamide] | 0.08 | 4 | 0.06 | 
5 | CN1CCCC(n2cc(NC(=O)c3cnn4cccnc34)c(-c3cc4cn[nH]c4cc3OC(F)F)n2)C1 (racemic) [Example 74, N-[3-[6-(difluoromethoxy)-1H-indazol-5-yl]-1-(1-methyl-3-piperidyl)pyrazol-4-yl]pyrazolo[1,5-a]pyrimidine-3-carboxamide] | 1.63 | 18 | 0.98 | 
6 | CN1CCCC1Cn1cc(NC(=O)c2cnn3cccnc23)c(-c2cc3cn[nH]c3cc2OC(F)F)n1 (racemic) [Example 75, N-[3-[6-(difluoromethoxy)-1H-indazol-5-yl]-1-[(1-methylpyrrolidin-2-yl)methyl]pyrazol-4-yl]pyrazolo[1,5-a]pyrimidine-3-carboxamide] | 0.31 | 11 | 0.26 | 
7 | CC1CNc2cc(OC(F)F)c(-c3nn(CCN)cc3NC(=O)c3cnn4cccnc34)cc2S1 (racemic) [Example 80, N-[1-(2-aminoethyl)-3-[6-(difluoromethoxy)-2-methyl-3,4-dihydro-2H-1,4-benzothiazin-7-yl]pyrazol-4-yl]pyrazolo[1,5-a]pyrimidine-3-carboxamide] | 0.16 | 13 | 0.17 | 
8 | CC1CNc2cc(OC(F)F)c(-c3n[nH]cc3NC(=O)c3cnn4cccnc34)cc2S1 (single isomer, unassigned) [Example 93, N-[3-[6-(difluoromethoxy)-2-methyl-3,4-dihydro-2H-1,4-benzothiazin-7-yl]-1H-pyrazol-4-yl]pyrazolo[1,5-a]pyrimidine-3-carboxamide] | 0.07 | 6 | 0.03 | 
9 | CC1Sc2cc(-c3n[nH]cc3NC(=O)c3cnn4cccnc34)c(OC(F)F)cc2NC1=O (single isomer, unassigned) [Example 95, N-[3-[6-(difluoromethoxy)-2-methyl-3-oxo-4H-1,4-benzothiazin-7-yl]-1H-pyrazol-4-yl]pyrazolo[1,5-a]pyrimidine-3-carboxamide] | 0.06 | 60 | 0.03 | 
10 | CC1Sc2cc(-c3n[nH]cc3NC(=O)c3cnn4cccnc34)c(OC(F)F)cc2NC1=O (single isomer, unassigned) [Example 96, N-[3-[6-(difluoromethoxy)-2-methyl-3-oxo-4H-1,4-benzothiazin-7-yl]-1H-pyrazol-4-yl]pyrazolo[1,5-a]pyrimidine-3-carboxamide] | 0.07 |  | 0.05 | 70
11 | CC1Sc2cc(-c3nn(C)cc3NC(=O)c3cnn4cccnc34)c(OC(F)F)cc2NC1=O (single isomer, unassigned) [Example 97, N-[3-[6-(difluoromethoxy)-2-methyl-3-oxo-4H-1,4-benzothiazin-7-yl]-1-methyl-pyrazol-4-yl]pyrazolo[1,5-a]pyrimidine-3-carboxamide] | 0.13 | 7 | 0.09 | 
12 | CC1Sc2cc(-c3nn(C)cc3NC(=O)c3cnn4cccnc34)c(OC(F)F)cc2NC1=O (single isomer, unassigned) [Example 98, N-[3-[6-(difluoromethoxy)-2-methyl-3-oxo-4H-1,4-benzothiazin-7-yl]-1-methyl-pyrazol-4-yl]pyrazolo[1,5-a]pyrimidine-3-carboxamide] | 0.11 |  | 0.07 | 6
13 | CC1CNc2cc(OC(F)F)c(-c3nn(CC(=O)N4CCCCC4)cc3NC(=O)c3cnn4cccnc34)cc2S1 (single isomer, unassigned) [Example 101, N-[3-[6-(difluoromethoxy)-2-methyl-3,4-dihydro-2H-1,4-benzothiazin-7-yl]-1-[2-oxo-2-(1-piperidyl)ethyl]pyrazol-4-yl]pyrazolo[1,5-a]pyrimidine-3-carboxamide] | 0.23 | 13 | 0.16 | 
14 | CC1CNc2cc(OC(F)F)c(-c3nn(CC(=O)N4CCCCC4)cc3NC(=O)c3cnn4cccnc34)cc2S1 (single isomer, unassigned) [Example 102, N-[3-[6-(difluoromethoxy)-2-methyl-3,4-dihydro-2H-1,4-benzothiazin-7-yl]-1-[2-oxo-2-(1-piperidyl)ethyl]pyrazol-4-yl]pyrazolo[1,5-a]pyrimidine-3-carboxamide] | 0.2 |  | 0.19 | 12
15 | CC1CNc2cc(OC(F)F)c(-c3nn(CC(=O)N4CC=CCC4)cc3NC(=O)c3cnn4cccnc34)cc2S1 (single isomer, unassigned) [Example 103, N-[3-[6-(difluoromethoxy)-2-methyl-3,4-dihydro-2H-1,4-benzothiazin-7-yl]-1-[2-(3,6-dihydro-2H-pyridin-1-yl)-2-oxo-ethyl]pyrazol-4-yl]pyrazolo[1,5-a]pyrimidine-3-carboxamide] | 0.2 | 12 | 0.14 | 
16 | CC1CNc2cc(OC(F)F)c(-c3nn(CC(=O)N4CC=CCC4)cc3NC(=O)c3cnn4cccnc34)cc2S1 (single isomer, unassigned) [Example 104, N-[3-[6-(difluoromethoxy)-2-methyl-3,4-dihydro-2H-1,4-benzothiazin-7-yl]-1-[2-(3,6-dihydro-2H-pyridin-1-yl)-2-oxo-ethyl]pyrazol-4-yl]pyrazolo[1,5-a]pyrimidine-3-carboxamide] | 0.15 |  | 0.16 | 11
17 | CC1CNc2cc(OC(F)F)c(-c3nn(CC(=O)N(C)C)cc3NC(=O)c3cnn4cccnc34)cc2S1 (single isomer, unassigned) [Example 105, N-[3-[6-(difluoromethoxy)-2-methyl-3,4-dihydro-2H-1,4-benzothiazin-7-yl]-1-[2-(dimethylamino)-2-oxo-ethyl]pyrazol-4-yl]pyrazolo[1,5-a]pyrimidine-3-carboxamide] | 0.19 | 24 | 0.13 | 
18 | O=C(O)Cn1cc(NC(=O)c2cnn3cccnc23)c(-c2cc3ccccc3cc2OC(F)F)n1 [Example 2, 2-(3-(3-(difluoromethoxy)naphthalen-2-yl)-4-(pyrazolo[1,5-a]pyrimidine-3-carboxamido)-1H-pyrazol-1-yl)acetic acid] | 0.64 | 128 |  | 
19 | CC(C)(C)OC(=O)N1CCC(C(=O)Cn2ncc3cc(-c4n[nH]cc4NC(=O)c4cnn5cccnc45)c(OC(F)F)cc32)CC1 [Example 18, tert-butyl 4-(2-(6-(difluoromethoxy)-5-(4-(pyrazolo[1,5-a]pyrimidine-3-carboxamido)-1H-pyrazol-3-yl)-1H-indazol-1-yl)acetyl)piperidine-1-carboxylate] | 8.02 |  | 2.59 | 
20 | COc1cc2sc(C(N)=O)cc2cc1-c1n[nH]cc1NC(=O)c1cnn2cccnc12 [Example 23, N-(3-(2-carbamoyl-6-methoxybenzo[b]thiophen-5-yl)-1H-pyrazol-4-yl)pyrazolo[1,5-a]pyrimidine-3-carboxamide] | 9.27 |  | 6.01 | 
